Measurements from paper PMC4767141, “Discovery of Potent, Orally Bioavailable, Small-Molecule Inhibitors of WNT Signaling from a Cell-Based Pathway Screen” (Journal of Medicinal Chemistry, 2015).

Assays:
[1] = biological target: T1, M1 (h) (Homo sapiens, UniProt P11229); test: CEREP binding panel; settings: antagonist radioligand, read-out: % Inhibition of Control Specific Binding
T1 construct: purchased Millipore KinaseProfiler (kinases); Cerep (receptors and ion channels)

[2] = biological target: T2, CAMKI (Homo sapiens, UniProt Q14012); test: Millipore kinase panel; type: biochemical; settings: read-out: % Control
T2 construct: purchased Millipore KinaseProfiler (kinases); Cerep (receptors and ion channels)

[3] = biological target: T3, CCR1 (h) (Homo sapiens, UniProt P32246); test: CEREP binding panel; settings: agonist radioligand, read-out: % Inhibition of Control Specific Binding
T3 construct: purchased Millipore KinaseProfiler (kinases); Cerep (receptors and ion channels)

[4] = biological target: T4, CB1 (h) (Homo sapiens, UniProt P21554); test: CEREP binding panel; settings: agonist radioligand, read-out: % Inhibition of Control Specific Binding
T4 construct: purchased Millipore KinaseProfiler (kinases); Cerep (receptors and ion channels)

[5] = biological target: T5, BRSK1 (Homo sapiens, UniProt Q8TDC3); test: Millipore kinase panel; type: biochemical; settings: read-out: % Control
T5 construct: purchased Millipore KinaseProfiler (kinases); Cerep (receptors and ion channels)

[6] = biological target: T6, PIM-3 (Homo sapiens, UniProt Q86V86); test: Millipore kinase panel; type: biochemical; settings: read-out: % Control
T6 construct: purchased Millipore KinaseProfiler (kinases); Cerep (receptors and ion channels)

[7] = biological target: T7, SRPK2 (Homo sapiens, UniProt P78362); test: Millipore kinase panel; type: biochemical; settings: read-out: % Control
T7 construct: purchased Millipore KinaseProfiler (kinases); Cerep (receptors and ion channels)

[8] = biological target: T8, PLK1 (Homo sapiens, UniProt P53350); test: Millipore kinase panel; type: biochemical; settings: read-out: % Control
T8 construct: purchased Millipore KinaseProfiler (kinases); Cerep (receptors and ion channels)

[9] = biological target: T9, GRK5 (Homo sapiens, UniProt P34947); test: Millipore kinase panel; type: biochemical; settings: read-out: % Control
T9 construct: purchased Millipore KinaseProfiler (kinases); Cerep (receptors and ion channels)

[10] = biological target: T10, PLK3 (Homo sapiens, UniProt Q9H4B4); test: Millipore kinase panel; type: biochemical; settings: read-out: % Control
T10 construct: purchased Millipore KinaseProfiler (kinases); Cerep (receptors and ion channels)

[11] = biological target: T11, RSK4 (Homo sapiens, UniProt Q9UK32); test: Millipore kinase panel; type: biochemical; settings: read-out: % Control
T11 construct: purchased Millipore KinaseProfiler (kinases); Cerep (receptors and ion channels)

[12] = biological target: T12, EPHA8 (Homo sapiens, UniProt P29322); test: Millipore kinase panel; type: biochemical; settings: read-out: % Control
T12 construct: purchased Millipore KinaseProfiler (kinases); Cerep (receptors and ion channels)

[13] = biological target: T13, A1 (h) (Homo sapiens, UniProt P30542); test: CEREP binding panel; settings: antagonist radioligand, read-out: % Inhibition of Control Specific Binding
T13 construct: purchased Millipore KinaseProfiler (kinases); Cerep (receptors and ion channels)

[14] = biological target: T14, FES (Homo sapiens, UniProt P07332); test: Millipore kinase panel; type: biochemical; settings: read-out: % Control
T14 construct: purchased Millipore KinaseProfiler (kinases); Cerep (receptors and ion channels)

[15] = biological target: T15, FGR (Homo sapiens, UniProt P09769); test: Millipore kinase panel; type: biochemical; settings: read-out: % Control
T15 construct: purchased Millipore KinaseProfiler (kinases); Cerep (receptors and ion channels)

[16] = biological target: T16, JNK3 (Homo sapiens, UniProt P53779); test: Millipore kinase panel; type: biochemical; settings: read-out: % Control
T16 construct: purchased Millipore KinaseProfiler (kinases); Cerep (receptors and ion channels)

[17] = biological target: T17, ITK (Homo sapiens, UniProt Q08881); test: Millipore kinase panel; type: biochemical; settings: read-out: % Control
T17 construct: purchased Millipore KinaseProfiler (kinases); Cerep (receptors and ion channels)

[18] = biological target: T18, 5-HT1A (h) (Homo sapiens, UniProt P08908); test: CEREP binding panel; settings: agonist radioligand, read-out: % Inhibition of Control Specific Binding
T18 construct: purchased Millipore KinaseProfiler (kinases); Cerep (receptors and ion channels)

[19] = biological target: T19, CDK3/CYCLINE (Homo sapiens, UniProt Q00526); test: Millipore kinase panel; type: biochemical; settings: read-out: % Control
T19 construct: purchased Millipore KinaseProfiler (kinases); Cerep (receptors and ion channels)

[20] = biological target: T20, NEK7 (Homo sapiens, UniProt Q8TDX7); test: Millipore kinase panel; type: biochemical; settings: read-out: % Control
T20 construct: purchased Millipore KinaseProfiler (kinases); Cerep (receptors and ion channels)

[21] = biological target: T21, κ (KOP) (Rattus norvegicus, UniProt P34975); test: CEREP binding panel; settings: agonist radioligand, read-out: % Inhibition of Control Specific Binding
T21 construct: purchased Millipore KinaseProfiler (kinases); Cerep (receptors and ion channels)

[22] = biological target: T22, dopamine transporter (h) (Homo sapiens, UniProt Q01959); test: CEREP binding panel; settings: antagonist radioligand, read-out: % Inhibition of Control Specific Binding
T22 construct: purchased Millipore KinaseProfiler (kinases); Cerep (receptors and ion channels)

[23] = biological target: T23, PRAK (Homo sapiens, UniProt Q8IW41); test: Millipore kinase panel; type: biochemical; settings: read-out: % Control
T23 construct: purchased Millipore KinaseProfiler (kinases); Cerep (receptors and ion channels)

[24] = biological target: T24, NEK6 (Homo sapiens, UniProt Q9HC98); test: Millipore kinase panel; type: biochemical; settings: read-out: % Control
T24 construct: purchased Millipore KinaseProfiler (kinases); Cerep (receptors and ion channels)

[25] = biological target: T25, RIPK2 (Homo sapiens, UniProt O43353); test: Millipore kinase panel; type: biochemical; settings: read-out: % Control
T25 construct: purchased Millipore KinaseProfiler (kinases); Cerep (receptors and ion channels)

[26] = biological target: T26, IRAK4 (Homo sapiens, UniProt Q9NWZ3); test: Millipore kinase panel; type: biochemical; settings: read-out: % Control
T26 construct: purchased Millipore KinaseProfiler (kinases); Cerep (receptors and ion channels)

[27] = biological target: T27, EPHB2 (Homo sapiens, UniProt P29323); test: Millipore kinase panel; type: biochemical; settings: read-out: % Control
T27 construct: purchased Millipore KinaseProfiler (kinases); Cerep (receptors and ion channels)

[28] = biological target: T28, PRKX (Homo sapiens, UniProt P51817); test: Millipore kinase panel; type: biochemical; settings: read-out: % Control
T28 construct: purchased Millipore KinaseProfiler (kinases); Cerep (receptors and ion channels)

[29] = biological target: T29, FGFR3 (Homo sapiens, UniProt P22607); test: Millipore kinase panel; type: biochemical; settings: read-out: % Control
T29 construct: purchased Millipore KinaseProfiler (kinases); Cerep (receptors and ion channels)

[30] = biological target: T30, 5-HT6 (h) (Homo sapiens, UniProt P50406); test: CEREP binding panel; settings: agonist radioligand, read-out: % Inhibition of Control Specific Binding
T30 construct: purchased Millipore KinaseProfiler (kinases); Cerep (receptors and ion channels)

[31] = biological target: T31, FER (Homo sapiens, UniProt P16591); test: Millipore kinase panel; type: biochemical; settings: read-out: % Control
T31 construct: purchased Millipore KinaseProfiler (kinases); Cerep (receptors and ion channels)

[32] = biological target: T32, 5-HT transporter (h) (Homo sapiens, UniProt P31645); test: CEREP binding panel; settings: antagonist radioligand, read-out: % Inhibition of Control Specific Binding
T32 construct: purchased Millipore KinaseProfiler (kinases); Cerep (receptors and ion channels)

[33] = biological target: T33, MTOR (Homo sapiens, UniProt P42345); test: Millipore kinase panel; type: biochemical; settings: read-out: % Control
T33 construct: purchased Millipore KinaseProfiler (kinases); Cerep (receptors and ion channels)

[34] = biological target: T34, MKK7BETA (Homo sapiens, UniProt O14733); test: Millipore kinase panel; type: biochemical; settings: read-out: % Control
T34 construct: purchased Millipore KinaseProfiler (kinases); Cerep (receptors and ion channels)

[35] = biological target: T35, EPHA7 (Homo sapiens, UniProt Q15375); test: Millipore kinase panel; type: biochemical; settings: read-out: % Control
T35 construct: purchased Millipore KinaseProfiler (kinases); Cerep (receptors and ion channels)

[36] = biological target: T36, ERBB4 (Homo sapiens, UniProt Q15303); test: Millipore kinase panel; type: biochemical; settings: read-out: % Control
T36 construct: purchased Millipore KinaseProfiler (kinases); Cerep (receptors and ion channels)

[37] = biological target: T37, TAK1 (Homo sapiens, UniProt O43318); test: Millipore kinase panel; type: biochemical; settings: read-out: % Control
T37 construct: purchased Millipore KinaseProfiler (kinases); Cerep (receptors and ion channels)

[38] = biological target: T38, JAK2 (Homo sapiens, UniProt O60674); test: Millipore kinase panel; type: biochemical; settings: read-out: % Control
T38 construct: purchased Millipore KinaseProfiler (kinases); Cerep (receptors and ion channels)

[39] = biological target: T39, PKCMU (Homo sapiens, UniProt Q15139); test: Millipore kinase panel; type: biochemical; settings: read-out: % Control
T39 construct: purchased Millipore KinaseProfiler (kinases); Cerep (receptors and ion channels)

[40] = biological target: T40, CAMKIV (Homo sapiens, UniProt Q16566); test: Millipore kinase panel; type: biochemical; settings: read-out: % Control
T40 construct: purchased Millipore KinaseProfiler (kinases); Cerep (receptors and ion channels)

[41] = biological target: T41, SGK2 (Homo sapiens, UniProt Q9HBY8); test: Millipore kinase panel; type: biochemical; settings: read-out: % Control
T41 construct: purchased Millipore KinaseProfiler (kinases); Cerep (receptors and ion channels)

[42] = biological target: T42, IKKBETA (Homo sapiens, UniProt O14920); test: Millipore kinase panel; type: biochemical; settings: read-out: % Control
T42 construct: purchased Millipore KinaseProfiler (kinases); Cerep (receptors and ion channels)

[43] = biological target: T43, PKD2 (Homo sapiens, UniProt Q9BZL6); test: Millipore kinase panel; type: biochemical; settings: read-out: % Control
T43 construct: purchased Millipore KinaseProfiler (kinases); Cerep (receptors and ion channels)

[44] = biological target: T44, ASK1 (Homo sapiens, UniProt Q99683); test: Millipore kinase panel; type: biochemical; settings: read-out: % Control
T44 construct: purchased Millipore KinaseProfiler (kinases); Cerep (receptors and ion channels)

T22 sequence (Q01959 whole entry): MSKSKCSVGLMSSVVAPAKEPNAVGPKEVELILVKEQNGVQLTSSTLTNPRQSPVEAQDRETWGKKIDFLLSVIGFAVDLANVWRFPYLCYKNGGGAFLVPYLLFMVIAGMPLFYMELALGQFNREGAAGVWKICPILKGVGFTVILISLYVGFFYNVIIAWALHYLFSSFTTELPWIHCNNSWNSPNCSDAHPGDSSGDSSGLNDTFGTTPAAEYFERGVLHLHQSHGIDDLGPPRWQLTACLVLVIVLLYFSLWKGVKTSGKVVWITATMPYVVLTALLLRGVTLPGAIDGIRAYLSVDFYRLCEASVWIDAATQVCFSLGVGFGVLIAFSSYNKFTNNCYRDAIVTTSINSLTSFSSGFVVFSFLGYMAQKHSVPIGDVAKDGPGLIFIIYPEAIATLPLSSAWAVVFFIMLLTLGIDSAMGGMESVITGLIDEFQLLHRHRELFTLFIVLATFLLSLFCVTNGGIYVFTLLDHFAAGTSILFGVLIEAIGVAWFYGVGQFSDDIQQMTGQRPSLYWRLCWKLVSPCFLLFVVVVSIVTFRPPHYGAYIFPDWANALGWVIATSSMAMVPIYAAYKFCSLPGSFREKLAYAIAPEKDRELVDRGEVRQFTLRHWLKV
T41 sequence (Q9HBY8 whole entry): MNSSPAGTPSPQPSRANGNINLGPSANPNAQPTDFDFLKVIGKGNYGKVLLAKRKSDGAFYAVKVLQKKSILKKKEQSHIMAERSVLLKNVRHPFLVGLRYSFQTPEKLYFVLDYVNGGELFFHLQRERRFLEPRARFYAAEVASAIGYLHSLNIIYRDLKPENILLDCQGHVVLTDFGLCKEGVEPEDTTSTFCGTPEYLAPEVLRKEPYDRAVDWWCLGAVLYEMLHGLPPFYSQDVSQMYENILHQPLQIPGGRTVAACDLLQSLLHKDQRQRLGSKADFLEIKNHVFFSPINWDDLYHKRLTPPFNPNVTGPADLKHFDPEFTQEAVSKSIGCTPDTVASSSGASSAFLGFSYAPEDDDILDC
T21 sequence (P34975 whole entry): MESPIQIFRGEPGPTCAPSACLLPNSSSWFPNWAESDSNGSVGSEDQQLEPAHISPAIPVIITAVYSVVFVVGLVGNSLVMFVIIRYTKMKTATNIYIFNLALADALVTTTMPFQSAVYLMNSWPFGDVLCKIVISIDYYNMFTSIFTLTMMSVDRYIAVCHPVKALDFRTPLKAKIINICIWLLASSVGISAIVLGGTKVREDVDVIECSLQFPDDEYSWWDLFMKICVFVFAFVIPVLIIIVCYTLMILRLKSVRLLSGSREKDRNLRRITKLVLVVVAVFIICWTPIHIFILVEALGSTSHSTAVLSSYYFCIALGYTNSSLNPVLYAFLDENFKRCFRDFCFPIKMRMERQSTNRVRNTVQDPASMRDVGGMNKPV
T2 sequence (Q14012 whole entry): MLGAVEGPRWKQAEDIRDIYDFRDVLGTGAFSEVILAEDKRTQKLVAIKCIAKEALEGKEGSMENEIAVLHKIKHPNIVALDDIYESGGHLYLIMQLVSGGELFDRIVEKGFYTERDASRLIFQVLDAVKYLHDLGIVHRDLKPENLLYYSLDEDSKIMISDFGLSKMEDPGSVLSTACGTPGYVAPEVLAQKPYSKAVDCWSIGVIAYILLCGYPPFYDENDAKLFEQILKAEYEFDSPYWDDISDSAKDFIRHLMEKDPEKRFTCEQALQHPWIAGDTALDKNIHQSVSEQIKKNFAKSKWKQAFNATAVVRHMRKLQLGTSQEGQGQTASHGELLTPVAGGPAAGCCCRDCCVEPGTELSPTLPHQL
T35 sequence (Q15375 28-998): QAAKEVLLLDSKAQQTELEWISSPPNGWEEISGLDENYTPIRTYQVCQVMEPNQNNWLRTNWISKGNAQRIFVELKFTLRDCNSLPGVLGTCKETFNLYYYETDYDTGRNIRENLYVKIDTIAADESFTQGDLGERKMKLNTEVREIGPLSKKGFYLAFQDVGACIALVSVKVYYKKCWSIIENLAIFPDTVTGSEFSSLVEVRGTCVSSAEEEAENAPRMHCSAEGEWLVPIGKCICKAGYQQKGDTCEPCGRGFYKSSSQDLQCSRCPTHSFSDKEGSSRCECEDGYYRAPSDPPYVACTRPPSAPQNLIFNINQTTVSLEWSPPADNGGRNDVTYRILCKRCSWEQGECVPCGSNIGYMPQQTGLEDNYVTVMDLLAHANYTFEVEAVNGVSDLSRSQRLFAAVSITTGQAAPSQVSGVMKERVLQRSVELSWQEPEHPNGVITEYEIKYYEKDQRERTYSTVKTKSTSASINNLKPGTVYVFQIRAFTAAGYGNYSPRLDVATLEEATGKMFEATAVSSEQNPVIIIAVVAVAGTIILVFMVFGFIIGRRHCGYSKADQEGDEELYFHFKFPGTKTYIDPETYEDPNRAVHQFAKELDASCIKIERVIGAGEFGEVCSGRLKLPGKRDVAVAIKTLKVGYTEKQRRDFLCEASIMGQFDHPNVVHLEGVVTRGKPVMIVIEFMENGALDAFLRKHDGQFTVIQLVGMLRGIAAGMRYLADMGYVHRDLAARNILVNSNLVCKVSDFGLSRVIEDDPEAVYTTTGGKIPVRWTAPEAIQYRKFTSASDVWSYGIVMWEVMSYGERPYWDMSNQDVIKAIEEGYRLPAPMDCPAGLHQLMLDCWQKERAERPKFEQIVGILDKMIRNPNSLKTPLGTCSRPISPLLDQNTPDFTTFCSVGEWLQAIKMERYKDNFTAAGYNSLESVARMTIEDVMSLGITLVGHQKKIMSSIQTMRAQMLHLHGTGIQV
T19 sequence (Q00526 whole entry): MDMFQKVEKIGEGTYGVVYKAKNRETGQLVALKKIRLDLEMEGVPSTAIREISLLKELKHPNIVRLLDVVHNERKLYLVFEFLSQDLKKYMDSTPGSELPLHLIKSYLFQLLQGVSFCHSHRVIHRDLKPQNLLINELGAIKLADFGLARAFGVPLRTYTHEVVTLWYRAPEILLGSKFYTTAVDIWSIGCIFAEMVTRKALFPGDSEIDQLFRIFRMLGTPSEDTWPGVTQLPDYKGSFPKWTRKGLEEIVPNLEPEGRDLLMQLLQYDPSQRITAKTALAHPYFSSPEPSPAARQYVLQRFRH
T19 sequence (P24864 whole entry partner): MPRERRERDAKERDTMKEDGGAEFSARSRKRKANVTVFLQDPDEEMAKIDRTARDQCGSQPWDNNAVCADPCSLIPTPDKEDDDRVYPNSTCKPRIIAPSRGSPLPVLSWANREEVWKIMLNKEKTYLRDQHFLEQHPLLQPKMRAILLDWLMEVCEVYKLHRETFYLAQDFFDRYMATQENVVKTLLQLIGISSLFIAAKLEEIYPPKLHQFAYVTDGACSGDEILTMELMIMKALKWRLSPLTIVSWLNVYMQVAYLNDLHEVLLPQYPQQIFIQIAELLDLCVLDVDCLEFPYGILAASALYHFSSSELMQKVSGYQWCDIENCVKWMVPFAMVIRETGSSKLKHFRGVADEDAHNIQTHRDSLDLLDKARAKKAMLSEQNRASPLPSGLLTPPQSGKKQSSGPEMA
T15 sequence (P09769 whole entry): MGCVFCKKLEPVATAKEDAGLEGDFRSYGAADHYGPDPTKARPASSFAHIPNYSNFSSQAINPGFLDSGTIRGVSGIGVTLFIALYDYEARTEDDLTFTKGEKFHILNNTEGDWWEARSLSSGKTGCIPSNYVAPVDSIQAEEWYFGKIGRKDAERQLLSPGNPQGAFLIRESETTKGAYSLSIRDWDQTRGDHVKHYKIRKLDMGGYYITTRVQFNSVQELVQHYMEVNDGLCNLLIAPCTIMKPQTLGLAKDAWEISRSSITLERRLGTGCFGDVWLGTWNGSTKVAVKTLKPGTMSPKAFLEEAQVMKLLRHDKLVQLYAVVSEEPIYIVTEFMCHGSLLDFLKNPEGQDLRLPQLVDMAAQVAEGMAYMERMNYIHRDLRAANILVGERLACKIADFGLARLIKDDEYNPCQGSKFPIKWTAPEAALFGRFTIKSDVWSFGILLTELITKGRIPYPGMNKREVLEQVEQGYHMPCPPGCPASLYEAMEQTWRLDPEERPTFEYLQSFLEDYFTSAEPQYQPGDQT
T25 sequence (O43353 whole entry): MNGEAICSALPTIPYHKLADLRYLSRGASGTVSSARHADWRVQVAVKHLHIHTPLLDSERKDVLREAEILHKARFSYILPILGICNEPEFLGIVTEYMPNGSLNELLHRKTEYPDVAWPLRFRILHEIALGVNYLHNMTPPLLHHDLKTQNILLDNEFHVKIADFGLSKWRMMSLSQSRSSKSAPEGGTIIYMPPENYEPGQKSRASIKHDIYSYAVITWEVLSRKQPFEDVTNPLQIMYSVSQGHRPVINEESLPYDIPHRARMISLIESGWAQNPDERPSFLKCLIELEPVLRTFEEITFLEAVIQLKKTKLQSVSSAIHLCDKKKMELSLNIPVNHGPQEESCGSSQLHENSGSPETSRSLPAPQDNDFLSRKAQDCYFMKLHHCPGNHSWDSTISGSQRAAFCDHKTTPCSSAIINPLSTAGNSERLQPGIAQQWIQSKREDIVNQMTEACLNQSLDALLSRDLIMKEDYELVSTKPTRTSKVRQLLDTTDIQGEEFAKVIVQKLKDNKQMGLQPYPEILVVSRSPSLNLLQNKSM
T26 sequence (Q9NWZ3 whole entry): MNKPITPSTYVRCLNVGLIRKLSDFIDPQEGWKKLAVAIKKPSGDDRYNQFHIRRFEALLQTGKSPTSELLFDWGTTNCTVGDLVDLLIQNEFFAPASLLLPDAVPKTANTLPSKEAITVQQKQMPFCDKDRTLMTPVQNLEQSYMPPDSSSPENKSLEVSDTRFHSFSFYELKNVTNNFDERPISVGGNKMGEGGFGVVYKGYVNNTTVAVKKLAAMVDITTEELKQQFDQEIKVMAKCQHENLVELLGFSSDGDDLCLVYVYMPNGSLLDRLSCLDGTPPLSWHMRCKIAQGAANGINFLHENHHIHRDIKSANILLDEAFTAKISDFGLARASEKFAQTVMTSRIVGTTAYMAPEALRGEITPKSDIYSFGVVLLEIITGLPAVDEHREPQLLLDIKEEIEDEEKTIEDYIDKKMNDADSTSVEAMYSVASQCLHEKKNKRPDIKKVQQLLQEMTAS

SMILES: O=C1NCCC12CCN(c1c(Cl)cncc1-c1ccc(N3CCOCC3)cc1)CC2 [Compound 44, 8-(3-Chloro-5-(4-morpholin-4-ylphenyl)pyridin-4-yl)-2,8-diazaspiro[4.5]decan-1-one]
- inhibition at 10 µM [1]: 12%
- remaining activity at 1 µM [2]: -4%
- inhibition at 10 µM [3]: 0%
- inhibition at 10 µM [4]: 1%
- remaining activity at 1 µM [5]: 5%
- remaining activity at 1 µM [6]: 5%
- remaining activity at 1 µM [7]: 10%
- remaining activity at 1 µM [8]: 14%
- remaining activity at 1 µM [9]: 0%
- remaining activity at 1 µM [10]: -17%
- remaining activity at 1 µM [11]: 2%
- remaining activity at 1 µM [12]: -3%
- inhibition at 10 µM [13]: -11%
- remaining activity at 1 µM [14]: 14%
- remaining activity at 1 µM [15]: 16%
- remaining activity at 1 µM [16]: 11%
- remaining activity at 1 µM [17]: 16%
- inhibition at 10 µM [18]: 11%
- remaining activity at 1 µM [19]: -7%
- remaining activity at 1 µM [20]: -7%
- inhibition at 10 µM [21]: 42%
- inhibition at 10 µM [22]: -13%
- remaining activity at 1 µM [23]: -8%
- remaining activity at 1 µM [24]: -4%
- remaining activity at 1 µM [25]: 3%
- remaining activity at 1 µM [26]: 2%
- remaining activity at 1 µM [27]: -1%
- remaining activity at 1 µM [28]: 1%
- remaining activity at 1 µM [29]: 10%
- inhibition at 10 µM [30]: -5%
- remaining activity at 1 µM [31]: 11%
- inhibition at 10 µM [32]: 17%
- remaining activity at 1 µM [33]: 18%
- remaining activity at 1 µM [34]: 17%
- remaining activity at 1 µM [35]: -2%
- remaining activity at 1 µM [36]: -9%
- remaining activity at 1 µM [37]: -3%
- remaining activity at 1 µM [38]: 4%
- remaining activity at 1 µM [39]: -22%
- remaining activity at 1 µM [40]: -8%
- remaining activity at 1 µM [41]: -5%
- remaining activity at 1 µM [42]: 3%
- remaining activity at 1 µM [43]: 0%
- remaining activity at 1 µM [44]: -1%
